Columns and labels:
MCF-7 cells [1] = assay: ROS production (CM-H2DCFDA, FACS), MCF-7; assay type: cell-based, human; conditions: 24 h
Experimental: Intracellular level of reactive oxygen species (ROS) was assessed by using CM-H2DCFDA (Invitrogen, Milan, Italy), a cell-permeable fluorogenic probe, which is deacetylated by intracellular esterases and can be oxidized in the presence of intracellular ROS, becoming highly fluorescent. MCF-7 and HeLa cells were seeded into 96-well tissue culture plates at a density of 5 × 10^4 cells/well and treated with 15 and 30 µM OI, respectively, for 24 h. Control cells were added with DMSO and processed at the same time. Then, cells were washed with PBS and stained in the dark with CM-H2DCFDA (diluted in PBS/CM to a final concentration of 1 μM) for 20 min at 37 °C. Next steps were also performed in the dark, in order to avoid probe oxidation. Cells were washed three times with PBS, harvested, re-suspended in PBS/CM, and fluorescence was measured by using Fortessa (BD Bioscience, San Jose, CA, USA). ROS levels were estimated by using mean fluorescent intensity of the viable cell population. Results were analyzed by the use of FlowJo software (Tree Star Inc., Ashland, OR, USA).

[2] = tested on: procaspases -8 and -9 in MCF-7 cells; assay: Western blot of procaspases -8 and -9, MCF-7; assay type: cell-based, human; conditions: MCF-7, 15 µM, 24 and 72 h
Experimental: Western blot analysis was conducted basically as previously reported. […] In order to obtain total cell lysates, harvested cells were lysed using 200 μL of lysis buffer as previously reported. Cytosolic and mitochondrial fractions were isolated as already described. Identical amounts of proteins from total lysate, mitochondrial, or cytosolic fraction were resolved on SDS-polyacrylamide gel, blotted to nitrocellulose membrane, and probed with proper primary antibodies (Santa Cruz Biotechnology, Dallas, TX, USA). Immunoreactive products were identified by using ECL Western blotting detection system (Bio-Rad Laboratories, Hercules, CA, USA).

MCF-7 cells [3] = assay: Cell cycle analysis (PI staining, flow cytometry), MCF-7; assay type: cell-based, human; conditions: MCF-7, 15 µM, 24 h
Experimental: In order to assess cell cycle analysis, MCF-7 and HeLa cells were seeded in 6-well plates, at a density of 2.5 × 10^5 cells/well, then they were added to DMSO or treated using 15 and 30 µM OI, respectively, for 24 h. MCF-10A were seeded as described before, then they were added to DMSO or treated using 30 µM OI, the highest concentration used for cancer cells, for 24 h. Next, cells were harvested by trypsinization, rinsed twice with cold PBS, and pelleted by centrifugation at 1500 rpm for 5 min. Pellets were re-suspended in 70% ice-cold ethanol for 30 min at 4 °C to perform cell fixation. Then, samples were rinsed twice with PBS and stained using a solution containing 3.8 mM sodium citrate (Sigma-Aldrich, Milan, Italy), 100 μg/mL RNAse (Sigma-Aldrich, Milan, Italy), 50 μg/mL propidium iodide (PI, Sigma-Aldrich, Milan, Italy), and 0.1% Igepal (Sigma-Aldrich, Milan, Italy) in PBS for 1 h at 37 °C. Subsequent cytofluorimetric analysis was achieved by BD FACSJazz™ Cell Sorter (Becton Dickinson, Franklin Lakes, NJ, USA).

HeLa cells = assay: MTT cell viability assay, HeLa; assay type: cell-based; conditions: Homo sapiens, 72 h
Experimental: Cell viability was assessed by using 3-(4,5-dimethylthiazol-2-y1)-2,5-diphenyltetrazolium bromide (MTT) assay (Sigma-Aldrich, Milan, Italy), as already reported. In brief, MCF-7 and HeLa cells (2 × 10^4 cells/well) were seeded in a 48-well plate and grown in complete medium overnight, then they were switched into DMEM-F12 supplemented with 2% FBS and treated with increasing concentrations (1, 10, 50, 75, and 100 µM) of different oxazolidin-2-ones derivatives (OA-OI) or doxorubicin for 72 h. Untreated cells were added with the vehicle (DMSO) and used as a control. After treatment, fresh MTT reagent (used at a final concentration of 0.5 mg/mL) was added, prolonging incubation for 2 h according to the manufacturer’s protocol. Absorbance at 570 nm was measured in each well, including controls, and every experiment was carried out in triplicate.
For each sample, mean absorbance was expressed as a percentage of the control and plotted vs. drug concentration, in order to determine the IC50 value (i.e., drug concentration able to decrease cell viability by 50% with respect to the control) for each cell line, generating a sigmoidal dose–response curve by the use of GraphPad Prism 7 software (GraphPad Inc., San Diego, CA, USA). Mean values and standard deviations (SD) of three independent experiments carried out in triplicate were reported. […]

MCF-7 cells [4] = assay: TUNEL assay, MCF-7; assay type: cell-based, human; conditions: MCF-7, 15 µM, 72 h; control 2.3%
Experimental: Apoptosis was tested by enzymatic labeling of DNA strand breaks using terminal deoxynucleotidyl transferase-mediated deoxyuridine triphosphate nick end-labeling (TUNEL) assay, following the guidelines of the manufacturer (TUNEL assay kit, Promega, Madison, WI, USA). Briefly, MCF-7 and HeLa cells were added with DMSO or treated with 15 and 30 µM OI, respectively, for 72 h. MCF-10A were added to DMSO or treated using 30 µM OI, for 72 h. Next, nuclear staining was achieved using 0.2 mg/mL 4′,6- diamidino-2-phenylindole (DAPI, Sigma-Aldrich, Milan, Italy) and samples were examined using a fluorescent microscope (Olympus BX4 equipped with CSV1.14 software employing a CAMXC-30 for image acquisition). Images were representative of three independent experiments.

SMILES: CCN(CC)C(=O)/C=C1/OC(=O)N(Cc2ccccc2)C1(C)C [OI, (E)-2-(3-benzyl-4,4-dimethyl-2-oxooxazolidin-5-ylidene)-N,N-diethylacetamide]
- ROS increase in the presence of NAC (MCF-7 cells [1]; MCF-7, 15 µM OI + NAC): no longer evident
- ROS generation (MCF-7 cells [1]; MCF-7, 15 µM, vs control): significantly stimulated
- expression level of activated caspase-8 [2]: unaffected
- proteolytic cleavage of pro-caspase-9 into its active form [2]: time-dependently activated
- increase of the percentage of cells in the G0/G1 phase (MCF-7 cells [3]): 15%
- reduction of the fraction of cells in the S-phase (MCF-7 cells [3]): 30%
- IC50 (HeLa cells): 31.1 µM
- apoptotic rate (TUNEL-positive cells) (MCF-7 cells [4]): 34.3%
